Assay results published in US20150132328A1 (priority 2011, published 2015).
Read-outs that look alike come from different tables or passages of the source.

What was measured:
human leukocytes = conditions: for Phagocytosis: peptide 10^-10M + zinc 10^-9M
Text: In order to test a different effect of the proliferation, we decided to investigate the effect of peptide+zinc versus peptide+zinc+DTPA on human leukocytes phagocytosis.

LR.4 cells = system: LR.4 cells
Text: The cellular viability that was quantified by the MTT method, indicates the mitochondrial activity.

newborn rat thymocytes = system: newborn rat thymocytes
Text: It was used an octapeptide with similar weight for the elaboration of the complex, to which was just the proline (4) and Glycine (5) original amino acids were interchanged by proline (4) and Glycine (5) resulting as […].

Substance: Peptide LEDGPKFL + Zinc [IMMP]
- Phagocytosis (human leukocytes; 24 h): 56 ± 2 arbitrary fluorescence intensity units
- Phagocytosis (human leukocytes; 48 h): 185 ± 18 arbitrary fluorescence intensity units
- Increase of phagocytosis (human leukocytes; 48 hours): about four times
- Increase of LR.4 cells (LR.4 cells): 20%
- Cells proliferation (control percent, MTT) (LR.4 cells; IMMP (M) −8): 115 ± 5.4 %
- Cells proliferation (control percent, MTT) (LR.4 cells; IMMP (M) −9): 118 ± 6.7 %
- Cells proliferation (control percent, MTT) (LR.4 cells; IMMP (M) −10): 120 ± 8.5 %
- Cells proliferation (control percent, MTT) (LR.4 cells; IMMP (M) −11): 110 ± 10.9 %
- Cells proliferation (control percent, MTT) (LR.4 cells; IMMP (M) −12): 104 ± 4.3%
- Increase of thymocytes proliferation (newborn rat thymocytes; 10^-10 M, With-A): 35%
- Proliferation (% with respect to the control) (newborn rat thymocytes; 10^−6 (918 ng/mL), 24 hours): 106.6 ± 3.0%
- Proliferation (% with respect to the control) (newborn rat thymocytes; 10^−6 (918 ng/mL), Con A 50 pg/mL): 126.6 ± 3.0%
- Proliferation (% with respect to the control) (newborn rat thymocytes; 10^−7 (91.8 ng/mL), 24 hours): 125.1 ± 2.6 %
- Proliferation (% with respect to the control) (newborn rat thymocytes; 10^−7 (91.8 ng/mL), Con A 50 pg/mL): 125.1 ± 2.6 %
- Proliferation (% with respect to the control) (newborn rat thymocytes; 10^−7.5 (9.58 ng/mL), Con A 50 pg/mL): 127.4 ± 3.0 %
- Proliferation (% with respect to the control) (newborn rat thymocytes; 10^−8 (9.18 ng/mL), 24 hours): 120.3 ± 2.7 %
- Proliferation (% with respect to the control) (newborn rat thymocytes; 10^−8 (9.18 ng/mL), Con A 50 pg/mL): 128.3 ± 2.7 %
- Proliferation (% with respect to the control) (newborn rat thymocytes; 10^−9 (0.91 ng/mL), 24 hours): 123.3 ± 3.4 %
- Proliferation (% with respect to the control) (newborn rat thymocytes; 10^−9 (0.91 ng/mL), Con A 50 pg/mL): 133.3 ± 3.4 %
- Proliferation (% with respect to the control) (newborn rat thymocytes; 10^−10 (0.09 ng/mL), 24 hours): 135.6 ± 3.1 %
- Proliferation (% with respect to the control) (newborn rat thymocytes; 10^−10 (0.09 ng/mL), Con A 50 pg/mL): 135.6 ± 3.1 %
- Proliferation (% with respect to the control) (newborn rat thymocytes; 10^−11 (0.009 ng/mL), 24 hours): 130.5 ± 1.4 %
- Proliferation (% with respect to the control) (newborn rat thymocytes; 10^−11 (0.009 ng/mL), Con A 50 pg/mL): 130.5 ± 1.4 %
- Proliferation (% with respect to the control) (newborn rat thymocytes; 10^−12 (0.0009 ng/mL), Con A 50 pg/mL): 120.3 ± 3.2 %
- Body weight (control percent) (LR.4 lymphoma; IMMP alone, no tumor, week 0): 100 ± 2%
- Survival (percent of live animals) (LR.4 lymphoma; IMMP alone, no tumor, week 0): 100%
- Body weight (control percent) (LR.4 lymphoma; IMMP alone, no tumor, week 1): 100 ± 4%
- Survival (percent of live animals) (LR.4 lymphoma; IMMP alone, no tumor, week 1): 100%
- Body weight (control percent) (LR.4 lymphoma; IMMP alone, no tumor, week 2): 100 ± 5%
- Survival (percent of live animals) (LR.4 lymphoma; IMMP alone, no tumor, week 2): 100%
- Body weight (control percent) (LR.4 lymphoma; IMMP alone, no tumor, week 3): 100 ± 3%
- Survival (percent of live animals) (LR.4 lymphoma; IMMP alone, no tumor, week 3): 100%
- Body weight (control percent) (LR.4 lymphoma; IMMP alone, no tumor, week 4): 100 ± 3%
- Survival (percent of live animals) (LR.4 lymphoma; IMMP alone, no tumor, week 4): 100%
- Body weight (control percent) (LR.4 lymphoma; IMMP alone, no tumor, week 5): 100 ± 4%
- Survival (percent of live animals) (LR.4 lymphoma; IMMP alone, no tumor, week 5): 100%
- Body weight (control percent) (LR.4 lymphoma; IMMP alone, no tumor, week 6): 100 ± 3%
- Survival (percent of live animals) (LR.4 lymphoma; IMMP alone, no tumor, week 6): 100%
- Body weight (control percent) (LR.4 lymphoma; IMMP alone, no tumor, week 7): 100 ± 5%
- Survival (percent of live animals) (LR.4 lymphoma; IMMP alone, no tumor, week 7): 100%
- Survival (percent of live animals) (LR.4 lymphoma; IMMP alone, no tumor, week 8): 100%
- Survival (percent of live animals) (LR.4 lymphoma; IMMP alone, no tumor, week 9): 100%
- Survival (percent of live animals) (LR.4 lymphoma; IMMP alone, no tumor, week 10): 100%
- Survival (percent of live animals) (LR.4 lymphoma; IMMP alone, no tumor, week 11): 100%
- Survival (percent of live animals) (LR.4 lymphoma; IMMP alone, no tumor, week 12): 100%
- Survival (percent of live animals) (LR.4 lymphoma; IMMP alone, no tumor, week 13): 100%
- Survival (percent of live animals) (LR.4 lymphoma; IMMP alone, no tumor, week 14): 100%
- Body weight (control percent) (LR.4 lymphoma; LR.4 + IMMP, week 0): 100 ± 2%
- Survival (percent of live animals) (LR.4 lymphoma; LR.4 + IMMP, week 0): 100%
- Body weight (control percent) (LR.4 lymphoma; LR.4 + IMMP, week 1): 101 ± 4%
- Survival (percent of live animals) (LR.4 lymphoma; LR.4 + IMMP, week 1): 100%
- Body weight (control percent) (LR.4 lymphoma; LR.4 + IMMP, week 2): 116 ± 6 %
- Survival (percent of live animals) (LR.4 lymphoma; LR.4 + IMMP, week 2): 100%
- Body weight (control percent) (LR.4 lymphoma; LR.4 + IMMP, week 3): 125 ± 8 %
- Survival (percent of live animals) (LR.4 lymphoma; LR.4 + IMMP, week 3): 100%
- Body weight (control percent) (LR.4 lymphoma; LR.4 + IMMP, week 4): 126 ± 8 %
- Survival (percent of live animals) (LR.4 lymphoma; LR.4 + IMMP, week 4): 100%
- Body weight (control percent) (LR.4 lymphoma; LR.4 + IMMP, week 5): 154 ± 11 %
- Survival (percent of live animals) (LR.4 lymphoma; LR.4 + IMMP, week 5): 100%
- Body weight (control percent) (LR.4 lymphoma; LR.4 + IMMP, week 6): 152 ± 12 %
- Survival (percent of live animals) (LR.4 lymphoma; LR.4 + IMMP, week 6): 100%
- Body weight (control percent) (LR.4 lymphoma; LR.4 + IMMP, week 7): 150 ± 11 %
- Survival (percent of live animals) (LR.4 lymphoma; LR.4 + IMMP, week 7): 100%
- Survival (percent of live animals) (LR.4 lymphoma; LR.4 + IMMP, week 8): 100%
- Survival (percent of live animals) (LR.4 lymphoma; LR.4 + IMMP, week 9): 67%
- Survival (percent of live animals) (LR.4 lymphoma; LR.4 + IMMP, week 10): 50%
- Survival (percent of live animals) (LR.4 lymphoma; LR.4 + IMMP, week 11): 34%
